Measured values published in patent US20070264330A1 (priority 2006, published 2007).
One block for each compound: values may come before it.

Tests used:
[1] = Excipient compatibility study with crystalline Form A: HPLC assay of % drug; format: physicochemical
Protocol: Physical mixtures of crystalline Form A and fourteen processing excipients, gelatin and hydroxypropyl methylcellulose capsules, and drug substance alone were prepared. […] Each sample group was stored under the following conditions: 5° C. (for time=0 testing), 40° C./75% RH (relative humidity) one month, and 40° C./75% RH three months. Bulk drug substance was weighed and added to a sample vial. De-ionized water was then measured (0.015 mL) and added to the vials designated as wet samples. The wet samples were then mixed using a vortex mixer for approximately 15 seconds to incorporate the water and the drug. Excipient was then weighed and added to appropriate vials. The contents of each vial were mixed for approximately 15 seconds using a vortex mixer to produce a uniform mixture of (wet or dry) drug/excipient. To prepare the capsule samples, the bulk drug substance was weighed directly into the capsule. The capsules were then placed into appropriate vials. Fifteen microliters of de-ionized water was added to the inside of capsules designated as wet samples. All samples were stored in 20 mL Type I clear glass scintillation vials with foil-lined screw-type vial caps were tightened by hand. Samples were stored in controlled room temperature/humidity until ready for testing. Other sample vials were stored at 40° C./75% RH unprotected from light and tested at one and three months. […] The vials were rinsed several times with diluent and added to the volumetric flasks. The contents of the capsules were transferred to 50 mL volumetric flasks and the capsule shells were also rinsed with diluent. Diluent was added to the volumetric flasks and they were sonicated for 10 minutes, then diluted to volume with diluent. The solutions were further diluted 5.0 mL into a 50 mL volumetric flask and brought to volume with diluent. These diluted solutions were used for the assay. All solutions were filtered through 0.45 micron PTFE filters, with the first 1-2 mL discarded before filling the HPLC autosampler vials. The diluted sample solutions were assayed against a reference standard of drug product prepared in a similar manner.

[2] = Excipient compatibility study with crystalline Form A: Total Related Substance (TRS); format: physicochemical
Protocol: Binary mixtures of drug with each excipient were prepared by physically mixing 50.0 mg (±2.0 mg) of drug substance with the specified proportion of each excipient. The stability of the drug in the presence of each excipient was studied in dry samples as well as with 30% w/w (relative to bulk drug weight) de-ionized water. Each sample group was stored under the following conditions: 5° C. (for time=0 testing), 40° C./75% RH (relative humidity) one month, and 40° C./75% RH three months.

[3] = In vivo human and non-human animal studies
[4] = Solubility in water of the tartrate salt; format: physicochemical; settings: tartrate salt versus compound of formula I
From the text: The tartrate salt of pimavanserin may be prepared as an integrated part of the process for synthesizing the compound as described above by using tartaric acid as the salt forming acid. Alternatively, the tartrate salt may be formed by reaction of the isolated compound of formula I with tartaric acid.

[5] = wet conditions (30% w/w water added)

- % Drug One Month 40° C./75% RH ([1]; dry conditions): 94.9%
- % Drug Three Months 40° C./75% RH ([1]; dry conditions): 95.9%
- % Drug (time = 0) ([1]; dry conditions): 98.4%
- % Drug One Month 40° C./75% RH [1, 5]: 91.2%
- % Drug Three Months 40° C./75% RH [1, 5]: 93.5%
- % Drug (time = 0) [1, 5]: 98.5%
- Total related substance, 1 month - Dry ([2]; dry, 1 month 40° C./75% RH): 1.38
- Total related substance, 3 month - Dry ([2]; dry, 3 month 40° C./75% RH): 2.72
- Total related substance, Time 0 - Dry ([2]; dry, time 0): 0.35
- Total related substance, 1 month - Wet ([2]; wet (30% w/w water), 1 month 40° C./75% RH): 1.67
- Total related substance, 3 month - Wet ([2]; wet (30% w/w water), 3 month 40° C./75% RH): 3.39
- Total related substance, Time 0 - Wet ([2]; wet (30% w/w water), time 0): 0.36
Compound: CC(C)COc1ccc(CNC(=O)N(Cc2ccc(F)cc2)C2CCN(C)CC2)cc1.CC(C)COc1ccc(CNC(=O)N(Cc2ccc(F)cc2)C2CCN(C)CC2)cc1.O=C(O)C(O)C(O)C(=O)O [#17 Drug Substance]

Compound: CC(C)COc1ccc(CNC(=O)N(Cc2ccc(F)cc2)C2CCN(C)CC2)cc1 [pimavanserin, N-(1-methylpiperidin-4-yl)-N-(4-fluorophenylmethyl)-N′-(4-(2-methylpropyloxy)phenylmethyl)carbamide]
- in vivo activity [3]: anti-psychotic, anti-dyskinesia, and anti-insomnia activity

Compound: tartrate salt of N-(4-fluorobenzyl)-N-(1-methylpiperidin-4-yl)-N′-(4-(2-methylpropyloxy)phenylmethyl)carbamide [pimavanserin tartrate]
- solubility in water [4]: improved solubility in water
